Measurements reported in US20190030053A1, “COMPOSITION FOR INCREASING EXPRESSION OF PGC-1alpha” (BENEBIOSIS CO., LTD., priority 2016, published 2019).

Experiments:
[1] = test system: telomerase; experiment: Telomerase activity (TRAP) in vivo, aorta of arteriosclerosis models (ApoE−/−); parameters: species or system mouse; details: ApoE−/− mice, high-fat diet, oral 0.1 mg/kg/day, 6 weeks
Text: In order to investigate the aging-related chronic disease preventing effect through the control of telomerase functions and DNA damage by the treatment with SL (3′-SL & 6′-SL) compositions in arteriosclerosis models, two types of 24-week-old male model mice (PGC-1α^+/+ApoE^−/−) were randomly grouped into three different dietary treatment groups (8 animals per group) below, and the diets were maintained for 6 weeks (a total of 24 animals): • Control group: Arteriosclerosis models fed with a high-fat diet (Rodent Diet with 60 kcal % fat) (8 animals) • 3′-SL administration group: Arteriosclerosis models treated with 3′-sialyllactose (3′-SL, Sigma) (oral administration of 0.1 mg per kg of mouse weight per day) in addition to the high-fat diet group (8 animals) • 6′-SL administration group: Arteriosclerosis models treated with 6′-sialyllactose (6′-SL, Sigma) (oral administration of 0.1 mg per kg of mouse weight per day) in addition to the high-fat diet group (8 animals)
In FIG. 20, the telomerase activity was measured using TRAP protocol (Wright et al., 1995). […] The fluorescence of the thus obtained TRAP product was measured using a fluorescent plate reader to quantify telomerase activity. Relative telomerase activity was normalized by the ratio of native […] to sulforhodamine (internal control standard), expressed as a percentage. […]

[2] = test system: Huntington's disease model mice (R6/2); experiment: Rotarod travel test in Huntington's disease models; format: in vivo, mouse; details: R6/2 mice, oral 0.1 mg/kg/day
Text: In order to investigate the changes in gene expression and cognitive ability by the treatment with SL (3′-SL & 6′-SL) compositions in Huntington's brain disease model, 4-week-old mice were purchased from Central Lab Animal (Korea). Water was freely accessible, and a commercially available pellet feed (Dooyeul Biotech, Korea) was given for one week. At 5 weeks of age, the mice were divided into three groups (composed of eight mice for each group): Eight 5-week-old male c57/BL6 mice (normal mice; initial body weight, average 25.3±4.3 g) treated with a normal diet were used for a control group. […]
In addition, the behavior improvement was evaluated through the rotarod travel time changes of the (Huntington's disease model) group, (Huntington's disease model+3′-SL) group, and (Huntington's disease model+6′-SL) group, compared with the normal mouse with a normal diet. […] The rotarod travel time was measured by using a rotarod device (rod accelerating at a revolution speed of 4-40 rpm through 3 minutes, Jungdo Instruments, Korea). After 4-week-old mice were practiced on the rotarod test, the rotarod test was performed from 5 weeks of age, and the mean time to fall was measured. […]

SMILES | telomerase activity in aorta sample (in vivo) [1] | rotarod travel time vs SL non-administration group [2]
CC(=O)N[C@H]1[C@H]([C@H](O)[C@H](O)CO)O[C@@](OC[C@H]2O[C@@H](O[C@H]3[C@H](O)[C@@H](O)[C@H](O)O[C@@H]3CO)[C@H](O)[C@@H](O)[C@H]2O)(C(=O)O)C[C@@H]1O [6′-SL, α-NeuNAc-(2→6)-β-D-Gal-(1→4)-D-Glc] | increased telomerase activity | increased
CC(=O)N[C@H]1[C@H]([C@H](O)[C@H](O)CO)O[C@@](O[C@H]2[C@@H](O)[C@@H](CO)O[C@@H](O[C@H]3[C@H](O)[C@@H](O)C(O)O[C@@H]3CO)[C@@H]2O)(C(=O)O)C[C@@H]1O (stereo partly drawn) [3′-SL, α-NeuNAc-(2→3)-β-D-Gal-(1→4)-D-Glc] | increased telomerase activity | less than that of 6′-SL
